The results in this text go back to patent US20140051679A1, “KINASE INHIBITORS AND METHOD OF TREATING CANCER WITH SAME” (UNIVERISTY HEALTH NETWORKS, priority 2011, published 2014).

The target in one experiment is T1, Aurora B (Homo sapiens, UniProt Q96GD4).
T1 construct: purchased Invitrogen PV3970
Nature of the experiment: Aurora B inhibition assay (Z-Lyte). Type of experiment: biochemical. Particulars: 28 nM Aurora B, 128 μM ATP; read-out: IC50 Ranges Aurora B. As to the method:
Aurora B inhibition was determined using the Z-Lyte assay kit from Invitrogen. The assay was performed using the recommended manufacturer's instructions with 128 μM ATP and 28 nM Aurora B (Invitrogen cat #PV3970). The % inhibition values were determined according to the manufacturer's directions and IC50 values were obtained using a non-linear 4 point logistic curve fit (XLfit4, IDBS)

The next experiment addresses T2, human TTK (Homo sapiens, UniProt P33981).
T2 construct: amino terminal GST fusion of full length human TTK; purchased Invitrogen
T2 sequence (P33981 1-857): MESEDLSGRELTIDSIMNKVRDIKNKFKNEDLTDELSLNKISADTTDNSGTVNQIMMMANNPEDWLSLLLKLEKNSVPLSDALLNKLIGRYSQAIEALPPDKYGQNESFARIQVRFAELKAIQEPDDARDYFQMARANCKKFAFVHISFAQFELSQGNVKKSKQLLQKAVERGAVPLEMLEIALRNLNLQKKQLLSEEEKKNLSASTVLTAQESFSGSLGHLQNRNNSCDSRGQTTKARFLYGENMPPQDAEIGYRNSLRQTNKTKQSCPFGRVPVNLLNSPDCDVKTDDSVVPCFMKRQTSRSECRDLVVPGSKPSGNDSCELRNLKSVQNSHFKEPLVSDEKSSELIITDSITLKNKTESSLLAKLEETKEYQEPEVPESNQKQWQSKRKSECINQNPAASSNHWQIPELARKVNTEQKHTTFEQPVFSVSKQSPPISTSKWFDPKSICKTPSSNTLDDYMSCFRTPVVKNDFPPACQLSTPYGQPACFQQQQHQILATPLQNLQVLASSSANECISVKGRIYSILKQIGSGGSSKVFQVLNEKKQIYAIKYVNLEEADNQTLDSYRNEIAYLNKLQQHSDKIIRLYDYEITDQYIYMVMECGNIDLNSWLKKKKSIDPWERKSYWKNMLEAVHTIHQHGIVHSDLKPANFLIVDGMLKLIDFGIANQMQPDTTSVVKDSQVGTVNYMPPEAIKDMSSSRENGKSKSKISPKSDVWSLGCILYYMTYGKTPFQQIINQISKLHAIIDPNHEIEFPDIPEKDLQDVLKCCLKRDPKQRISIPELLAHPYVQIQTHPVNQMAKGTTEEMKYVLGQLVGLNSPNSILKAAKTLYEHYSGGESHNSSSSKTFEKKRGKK
Kind of experiment: TTK inhibition assay (indirect ELISA). Type of experiment: biochemical. Particulars: GST-TTK 0.68 nM, 16 μM ATP; read-out: IC50 Ranges TTK. For orientation: An ELISA detects its analyte on a solid surface through an enzyme-linked reagent.

For another experiment, the target named is T3, human PLK4 (Homo sapiens, UniProt O00444).
T3 construct: amino terminal GST fusion of residues 1-391 of human PLK4; made in house; host or cells: E. coli
T3 sequence (O00444 1-391): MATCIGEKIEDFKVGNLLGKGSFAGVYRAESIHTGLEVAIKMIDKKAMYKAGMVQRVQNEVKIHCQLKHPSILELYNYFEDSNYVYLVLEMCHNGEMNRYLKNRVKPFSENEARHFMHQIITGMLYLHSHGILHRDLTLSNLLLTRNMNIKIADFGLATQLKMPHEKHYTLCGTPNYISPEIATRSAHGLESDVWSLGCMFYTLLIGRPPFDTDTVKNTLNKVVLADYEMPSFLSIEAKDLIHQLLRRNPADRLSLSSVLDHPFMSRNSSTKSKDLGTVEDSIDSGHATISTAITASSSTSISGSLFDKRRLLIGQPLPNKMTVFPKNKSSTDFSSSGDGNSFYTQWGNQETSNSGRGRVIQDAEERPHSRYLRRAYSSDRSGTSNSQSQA
Kind of experiment: PLK4 inhibition assay (indirect ELISA). Type of experiment: biochemical. The following applies: GST-PLK4 4 nM, 15 μM ATP; read-out: IC50 Ranges PLK4. The procedure, abridged:
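Dephosphorylated GST-tagged human PLK4 (residues 1-391, E. coli), 4 nM, preincubated 15 min with compound, then reacted 30 min with 15 μM ATP on MBP-coated plates (50 mM HEPES pH 7.5, 10 mM MgCl2, 0.01% Brij 35). Phospho-MBP detected by antibody ELISA at 450 nm. Tested at 10 μM or 10-point titrations; IC50 from 4-parameter logistic fit.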

Experiment [1] relates to MDA-MB-231 breast cancer cells. Kind of experiment: Cell growth inhibition, Sulforhodamine B assay, MDA-MB-231. Type of experiment: cell-based. The following applies: Homo sapiens, 120 h, 5 days culture, SRB assay, read-out: Cell Line GI50 Range MDA-MB-231. (In general: The SRB assay estimates cell density from bound dye.)
In experiment [2] the test system is OVCAR-3 ovarian cancer cells. Kind of experiment: Cell growth inhibition, Sulforhodamine B assay, OVCAR-3. Type of experiment: cell-based. Particulars: Homo sapiens, 120 h, 5 days culture, SRB assay, read-out: Cell Line GI50 Range OVCAR-3.
Experiment [3] deals with MDA-MB-468 breast cancer cells. Nature of the experiment: Cell growth inhibition, Sulforhodamine B assay, MDA-MB-468. Type of experiment: cell-based. Particulars: Homo sapiens, 120 h, 5 days culture, SRB assay, read-out: Cell Line GI50 Range MDA-MB-468.
Experiment [4] concerns HCT116 colon cancer cells. Nature of the experiment: Cell growth inhibition, Sulforhodamine B assay, HCT116. The following applies: Homo sapiens, HCT-116, 120 h, 5 days culture, SRB assay, read-out: Cell Line GI50 Range HCT116. Type of experiment: cell-based.
A further experiment deals with HT29 colon cancer cells. Nature of the experiment: Cell growth inhibition, Sulforhodamine B assay, HT29. Type of experiment: cell-based. Particulars: Homo sapiens, HT-29, 120 h, 5 days culture, SRB assay, read-out: Cell Line GI50 Range HT29.

The term IC50 denotes the concentration that inhibits the measured activity by half. By GI50 is commonly meant the concentration that inhibits growth by half.

T1 sequence (Q96GD4 whole entry): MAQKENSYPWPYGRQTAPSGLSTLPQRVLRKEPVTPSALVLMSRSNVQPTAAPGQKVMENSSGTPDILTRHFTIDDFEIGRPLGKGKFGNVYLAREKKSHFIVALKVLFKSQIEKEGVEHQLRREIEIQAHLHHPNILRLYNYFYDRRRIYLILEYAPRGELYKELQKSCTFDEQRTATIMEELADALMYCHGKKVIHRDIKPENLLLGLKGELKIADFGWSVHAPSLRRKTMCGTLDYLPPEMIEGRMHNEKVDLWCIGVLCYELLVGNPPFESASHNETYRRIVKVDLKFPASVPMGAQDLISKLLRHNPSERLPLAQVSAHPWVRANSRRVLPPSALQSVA

Consider `C[C@H](NC(=O)c1ccc2[nH]nc(-c3ccc(OC4CCN(C)CC4)cc3)c2c1)C1CCCCC1` [Example A38, (S)—N-(1-cyclohexylethyl)-3-(4-((1-methylpiperidin-4-yl)oxy)phenyl)-1H-indazole-5-carboxamide], for which the half-maximal inhibitory concentration (IC50) at Aurora B, at human TTK and on human PLK4 was at most 5 µM throughout. Also, the GI50 (in experiment [1]; in experiment [2]; in experiment [3]; in experiment [4]; in the experiment with HT29 colon cancer cells) was at most 5 µM in each case.

`CN(C)CCCOc1ccc(-c2n[nH]c3ccc(NC(=O)C(c4ccsc4)N4CCCC4)cc23)cc1` (centres unmarked) [Example A43, N-(3-(4-(3-(dimethylamino)propoxy)phenyl)-1H-indazol-5-yl)-2-(pyrrolidin-1-yl)-2-(thiophen-3-yl)acetamide]: the IC50 on Aurora B, on human TTK and on human PLK4 was at most 5 µM each time. Besides, the GI50 (in experiment [1]; in experiment [2]; in experiment [3]; in experiment [4]; with HT29 colon cancer cells) was at most 5 µM each time.

As for `O=C(Nc1ccc2[nH]nc(-c3ccc(OCCN4CCCC4)cc3)c2c1)C(c1ccsc1)N1CCCC1` (centres unmarked) [Example A44, 2-(pyrrolidin-1-yl)-N-(3-(4-(2-(pyrrolidin-1-yl)ethoxy)phenyl)-1H-indazol-5-yl)-2-(thiophen-3-yl)acetamideamide], the IC50 on Aurora B, on human TTK and on human PLK4 was at most 5 µM throughout. Moreover, the 50% growth inhibitory concentration (GI50) (in experiment [1]; in experiment [2]; in experiment [3]; in experiment [4]; in the experiment with HT29 colon cancer cells) was at most 5 µM each time.

Turning to `O=C(Nc1ccc2[nH]nc(-c3ccc(OCCCN4CCOCC4)cc3)c2c1)C(c1ccsc1)N1CCCC1` (centres unmarked) [Example A45, N-(3-(4-(3-morpholinopropoxy)phenyl)-1H-indazol-5-yl)-2-(pyrrolidin-1-yl)-2-(thiophen-3-yl)acetamide], the IC50 at Aurora B, on human TTK and at human PLK4 was at most 5 µM each time. In addition, the concentration for 50% growth inhibition (GI50) in experiment [1] was at most 5 µM; in experiment [2] it was 5 to 20 µM; in experiment [3], at most 5 µM; in experiment [4], at most 5 µM; with HT29 colon cancer cells it was at most 5 µM.

On to `C[C@@H](NC(=O)c1ccc2[nH]nc(-c3ccc(OC4CCN(C)CC4)cc3)c2c1)c1cccs1` [Example A55, (R)-3-(4-((1-methylpiperidin-4-yl)oxy)phenyl)-N-(1-(thiophen-2-yl)ethyl)-1H-indazole-5-carboxamide], for which the IC50 on Aurora B, on human TTK and at human PLK4 was at most 5 µM in each case. Further, the GI50 (in experiment [1]; in experiment [2]; in experiment [3]; in experiment [4]; in the experiment on HT29 colon cancer cells) was at most 5 µM throughout.

`CN1CCC(Oc2ccc(-c3n[nH]c4ccc(NC(=O)C(c5ccsc5)N5CCCC5)cc34)cc2Cl)CC1` (centres unmarked) [Example A57, N-(3-(3-chloro-4-((1-methylpiperidin-4-yl)oxy)phenyl)-1H-indazol-5-yl)-2-(pyrrolidin-1-yl)-2-(thiophen-3-yl)acetamide]: the IC50 on Aurora B, at human TTK and on human PLK4 was at most 5 µM throughout. Also, the GI50 (in experiment [1]; in experiment [2]; in experiment [3]; in experiment [4]; in the experiment with HT29 colon cancer cells) was at most 5 µM each time.

For `CC[C@@H](NC(=O)c1ccc2[nH]nc(-c3ccc(N4CCOCC4)cc3)c2c1)c1cccs1` [Example A58, (R)-3-(4-morpholinophenyl)-N-(1-(thiophen-2-yl)propyl)-1H-indazole-5-carboxamide], the IC50 on Aurora B, on human TTK and at human PLK4 was at most 5 µM in each case. The GI50 (in experiment [1]; in experiment [2]; in experiment [3]; in experiment [4]; in the experiment with HT29 colon cancer cells) was at most 5 µM in each case.
